Data: US20250114387A1, “PHARMACEUTICAL COMPOSITION COMPRISING ENAVOGLIFLOZIN FOR PREVENTING OR TREATING OBESITY IN CANINE ANIMALS” (DAEWOONG PHARMACEUTICAL CO., LTD., priority 2022, published 2025)

Key:
[1] = Non-clinical toxicity test: 13 weeks repeated oral administration, changes in body weight; format: in vivo, beagles
Protocol: Changes in body weight were confirmed after administering enavogliflozin to four female and four male 6-month-old normal beagles at 0 (control, gelatin capsule), 1, 3, and 6 mg/kg/day for 13 weeks. The above amounts of enavogliflozin were charged in a gelatin capsule and administered daily.

[2] = Non-clinical toxicity test: 39 weeks repeated oral administration, changes in body weight; format: in vivo, beagles
[3] = system: obese dogs; test: Clinical trial in obese dogs: BCS, body weight, chest and waist circumference, resting energy requirement, fat thickness, body fat; format: in vivo
Source text: Adult dogs which were naturally obese but otherwise healthy were selected regardless of breed, sex, and altered status, and informed consent was obtained from the dog owners for participation in the clinical trial.
As a result of physical examination of all dogs (including body weight and BCS (a total of 9 levels), FIG. 1 and Table 1), those diagnosed as obese were selected. The BCS used to select dogs is classified into a total of 9 levels, and dogs with a BCS of level 6 or higher were selected, and detailed criteria are presented in Table 1 and FIG. 1.
(§1) A total of 20 dogs were selected and divided into 4 groups with 5 dogs in each group: a normal obese control (OC); hereinafter, referred to as a control (OC)), an enavogliflozin 0.2-administered group, an enavogliflozin 0.5-administered group, and an enavogliflozin 1-administered group. The control was fed regular feed, and the enavogliflozin-administered groups were fed regular feed supplemented with enavogliflozin at doses of 0.2, 0.5, or 1 mg/kg, respectively. The feed was supplemented with enavogliflozin once a day for 8 weeks and given orally.
Body weights (BW), chest circumferences, and waist circumferences were measured immediately before the first intake of enavogliflozin-supplemented feed, and once every two weeks for the next 10 weeks. The chest circumferences and waist circumferences were measured four times each at the thickest part of the chest and the thinnest part between the chest and hind legs, and an average size was calculated. Resting energy requirement (RER) was calculated using Equation 1 in the reference document (Brooks et al., Journal of the American Animal Hospital Association 50, 1-11. (2014)).
Fat thicknesses were evaluated by measuring the perpendicular distance from the T10 spinal process to the skin by radiography (Titan 2000 X-ray system, COMED Medical Systems Co., Ltd., Seoul, Korea) on the first day of enavogliflozin administration, and on weeks 4, 8, and 10 of administration. Body fat was measured with a body fat meter every two weeks for a total of 10 weeks after the start of enavogliflozin administration.

[4] = system: obese dogs; test: Clinical trial in obese dogs: hematological tests; format: in vivo
Protocol: as §1
Hematological tests were performed on the day before the first administration of enavogliflozin and once every two weeks for the next 10 weeks. A portion of the blood collected on the day of the test was stored in a CBC tube containing the anticoagulant EDTA-2K to assess a red blood cell (RBC) count, hematocrit (Hct), a hemoglobin (Hb) concentration, a white blood cell (WBC) count, and a platelet (PLT) count using an automated hematology analyzer (ADVIA 2120i™, Siemens Healthcare Diagnostics, Vienna, Austria).

[5] = normal female beagles, 1 mg/kg/day oral
[6] = normal female beagles, 3 mg/kg/day oral
[7] = normal female beagles, 6 mg/kg/day oral
[8] = normal male beagles, 1 mg/kg/day oral
[9] = normal male beagles, 3 mg/kg/day oral
[10] = normal male beagles, 6 mg/kg/day oral
[11] = 0.2 mg/kg once a day oral for 8 weeks, week 0
[12] = 0.2 mg/kg once a day oral for 8 weeks, week 2
[13] = 0.2 mg/kg once a day oral for 8 weeks, week 4
[14] = 0.2 mg/kg once a day oral for 8 weeks, week 6
[15] = 0.2 mg/kg once a day oral for 8 weeks, week 8
[16] = 0.2 mg/kg once a day oral for 8 weeks, week 10
[17] = 0.5 mg/kg once a day oral for 8 weeks, week 0
[18] = 0.5 mg/kg once a day oral for 8 weeks, week 2
[19] = 0.5 mg/kg once a day oral for 8 weeks, week 4
[20] = 0.5 mg/kg once a day oral for 8 weeks, week 6
[21] = 0.5 mg/kg once a day oral for 8 weeks, week 8
[22] = 0.5 mg/kg once a day oral for 8 weeks, week 10
[23] = 1 mg/kg once a day oral for 8 weeks, week 0
[24] = 1 mg/kg once a day oral for 8 weeks, week 2
[25] = 1 mg/kg once a day oral for 8 weeks, week 4
[26] = 1 mg/kg once a day oral for 8 weeks, week 6
[27] = 1 mg/kg once a day oral for 8 weeks, week 8
[28] = 1 mg/kg once a day oral for 8 weeks, week 10
[29] = all enavogliflozin-administered groups
[30] = 0.2 mg/kg once a day oral for 8 weeks
[31] = 0.5 mg/kg once a day oral for 8 weeks
[32] = 1 mg/kg once a day oral for 8 weeks

OC[C@H]1O[C@@H](c2cc(Cc3ccc(C4CC4)cc3)c(Cl)c3c2CCO3)[C@H](O)[C@@H](O)[C@@H]1O [Enavogliflozin, enavogliflozin]
body weight decrease compared to the control [1, 5]: 19.6%
body weight decrease compared to the control [1, 6]: 18.5%
body weight decrease compared to the control [1, 7]: 33.2%
body weight decrease compared to the control [1, 8]: 17.7%
body weight decrease compared to the control [1, 9]: 16%
body weight decrease compared to the control [1, 10]: 29.9%
body weight decrease [2, 5]: 7.6%
body weight decrease [2, 6]: 11.8%
body weight decrease [2, 7]: 11.3%
body weight decrease [2, 8]: 9.1%
body weight decrease [2, 9]: 12.7%
body weight decrease [2, 10]: 21.0%
body fat percentage, rank among groups ([3]; 0.2 mg/kg): lowest
Change rates of chest circumference [3, 11]: 100.00 ± 0.00%
Change rates of resting energy requirement [3, 11]: 100.00 ± 0.00%
Change rates of waist circumference [3, 11]: 100.00 ± 0.00%
Change rates of chest circumference [3, 12]: 99.20 ± 3.44%
Change rates of resting energy requirement [3, 12]: 96.98 ± 2.69%
Change rates of waist circumference [3, 12]: 100.53 ± 4.71%
Change rates of chest circumference [3, 13]: 97.16 ± 2.74%
Change rates of resting energy requirement [3, 13]: 93.41 ± 5.79%
Change rates of waist circumference [3, 13]: 97.39 ± 12.15%
Change rates of chest circumference [3, 14]: 95.08 ± 3.96%
Change rates of resting energy requirement [3, 14]: 95.21 ± 4.10%
Change rates of waist circumference [3, 14]: 98.96 ± 15.47%
Change rates of chest circumference [3, 15]: 96.08 ± 2.60%
Change rates of resting energy requirement [3, 15]: 94.64 ± 3.59 %
Change rates of waist circumference [3, 15]: 98.89 ± 11.98%
Change rates of chest circumference [3, 16]: 99.18 ± 3.01%
Change rates of resting energy requirement [3, 16]: 96.15 ± 4.75%
Change rates of waist circumference [3, 16]: 101.98 ± 10.78%
BCS compared to the control (OC) ([3]; 0.2 mg/kg, at 4, 8, and 10 weeks after the start of administration, p<0.05): significantly lower than the control (OC)
resting energy requirement (RER) compared to the control (OC) ([3]; 0.2 mg/kg, at 4 weeks and 8 weeks after the start of administration, p<0.05): significantly lower
body weight compared to the control (OC) ([3]; 0.2 mg/kg, from 4 weeks after the start of administration, p<0.05): significantly lower than the control (OC)
fat thickness change, significance ([3]; 0.2 mg/kg, week 8 and week 10): significant at week 8 and week 10
body weight ([3]; 0.5 mg/kg): decreasing at week 2 and week 4 of the trial and then slowly increasing
Change rates of chest circumference [3, 17]: 100.00 ± 0.00%
Change rates of resting energy requirement [3, 17]: 100.00 ± 0.00%
Change rates of waist circumference [3, 17]: 100.00 ± 0.00%
Change rates of chest circumference [3, 18]: 98.19 ± 4.31%
Change rates of resting energy requirement [3, 18]: 98.63 ± 0.72%
Change rates of waist circumference [3, 18]: 99.57 ± 1.71%
Change rates of chest circumference [3, 19]: 97.16 ± 3.23%
Change rates of resting energy requirement [3, 19]: 97.93 ± 1.00%
Change rates of waist circumference [3, 19]: 98.45 ± 4.94%
Change rates of chest circumference [3, 20]: 95.60 ± 4.55%
Change rates of resting energy requirement [3, 20]: 97.54 ± 2.73%
Change rates of waist circumference [3, 20]: 96.30 ± 3.83%
Change rates of chest circumference [3, 21]: 93.90 ± 3.11%
Change rates of resting energy requirement [3, 21]: 96.92 ± 2.00%
Change rates of waist circumference [3, 21]: 93.84 ± 5.54%
Change rates of chest circumference [3, 22]: 96.43 ± 2.76%
Change rates of resting energy requirement [3, 22]: 98.79 ± 2.30%
Change rates of waist circumference [3, 22]: 96.00 ± 4.72%
BCS ([3]; 0.5 mg/kg, entire experimental period): decreased during the entire experimental period
Change rates of chest circumference [3, 23]: 100.00 ± 0.00%
Change rates of resting energy requirement [3, 23]: 100.00 ± 0.00%
Change rates of waist circumference [3, 23]: 100.00 ± 0.00%
Change rates of chest circumference [3, 24]: 94.79 ± 6.67%
Change rates of resting energy requirement [3, 24]: 97.75 ± 2.32%
Change rates of waist circumference [3, 24]: 95.97 ± 11.67%
Change rates of chest circumference [3, 25]: 99.81 ± 2.43%
Change rates of resting energy requirement [3, 25]: 98.11 ± 2.18%
Change rates of waist circumference [3, 25]: 99.18 ± 8.09%
Change rates of chest circumference [3, 26]: 100.54 ± 4.98%
Change rates of resting energy requirement [3, 26]: 98.95 ± 2.07%
Change rates of waist circumference [3, 26]: 103.75 ± 10.54%
Change rates of chest circumference [3, 27]: 99.20 ± 4.49%
Change rates of resting energy requirement [3, 27]: 99.19 ± 4.05%
Change rates of waist circumference [3, 27]: 99.76 ± 12.53%
Change rates of chest circumference [3, 28]: 100.24 ± 5.15%
Change rates of resting energy requirement [3, 28]: 99.97 ± 6.15%
Change rates of waist circumference [3, 28]: 101.33 ± 14.44%
BCS compared to the control (OC) ([3]; 1 mg/kg, at the end of the experiment): lower than the control (OC) at the end of the experiment
BCS compared to the control (OC) ([3]; 1 mg/kg, during the experiment): slightly increased compared to the control (OC)
BCS, body weight, body fat percentage, fat thickness, and chest and waist circumferences ([3]; 8-week administration): reduced
fat thickness ([3]; all administration groups (0.2, 0.5, 1 mg/kg)): decreased in all administration groups
chest circumference [3, 29]: decreased
waist circumference [3, 29]: decreased
body fat percentage ([3]; all groups (0.2, 0.5, 1 mg/kg)): no significant differences
anti-obesity results, comparison of doses ([3]; feed supplemented with 0.2 mg/kg): most effective results
Hb [4, 30]: 16.34 ± 2.68 g/dL
Hct [4, 30]: 49.86 ± 7.08%
Platelet [4, 30]: 392.20 ± 11.16 ×10^3/μL
RBC [4, 30]: 6.92 ± 0.79 ×10^6 μL
WBC [4, 30]: 11.12 ± 3.69 ×10^3 μL
Hb [4, 31]: 16.40 ± 0.70 g/dL
Hct [4, 31]: 50.26 ± 1.94%
Platelet [4, 31]: 307.40 ± 6.02 ×10^3/μL
WBC [4, 31]: 7.75 ± 2.04 ×10^3 μL
Hb [4, 32]: 16.16 ± 2.15 g/dL
Hct [4, 32]: 46.76 ± 6.13%
Platelet [4, 32]: 299.10 ± 7.65 ×10^3/μL
RBC [4, 32]: 6.55 ± 1.08 ×10^6 μL
WBC [4, 32]: 10.01 ± 3.35 ×10^3 μL
platelet (PLT) count compared to the control (OC) ([4]; 1 mg/kg, p<0.05): significantly lower than that of the control (OC)
hematological indicators, differences between the administration groups ([4]; 10-week trial period, except for the platelet (PLT) count): no significant differences
